Source: patent publication US11932850B2, “Cancer chemoprevention with STAT3 blockers” (Jill M. Siegfried, LLC, priority 2018, dated 2024)

Tests used:
[1] = system: c-Myc in H1975-derived tumors; assay: c-Myc expression in H1975 xenograft tumors (Western blot); format: in vivo, nude mice
Experimental: FIGS. 7C and 7D show c-Myc is suppressed after CS3D treatment in vivo. At the end of the treatments, tumors were harvested, whole cell lysates were prepared and RNA extracted for target gene analysis by Western blotting and RT-qPCR GAPDH protein was used as internal loading control for immunoblotting. CS3D treated tumors (C4, C5, and C6) from separate animals show a decrease in c-Myc expression level relative to the CS3M-treated group (C1, C2, and C3) in 201T. […] Data are shown as mean+/−SEM.
To determine how CS3D blocks NSCLC growth, Western blot, qRT-PCR, and immunohistochemical analysis were performed to determine expression of c-Myc in residual tumors. These analyses identified a substantial downregulation of c-Myc protein (FIGS. 7C and 7D) and mRNA levels (FIG. 7E) in individual CS3D-treated tumors relative to CS3M-treated tumors in both 201T and H1975 xenografts. Some variability in protein levels among individual xenografts was observed (FIGS. 7C and 7D); the densitometry units for c-Myc protein after normalizing for GAPDH levels ranged from 0.11-0.16 units for CS3D-treated xenografts and 0.25-0.46 units for CS3M-treated tumors in H1975. Similarly, in 201T-derived tumors these measurements ranged from 0.015 to 0.51 units for CS3D and 0.28 to 0.97 units for CS3M. Even with this variability, the effect across the groups in both cell lines was significant (P<0.05 for H1975 and P<0.042 for 201T xenografts), with a mean decrease of 65% and 70%, respectively.

A549 cells = system: A549 cells
Experimental: (§1) NSCLC cell lines (201T and H1975) were transfected with CS3D or CS3M (cyclic STAT3 mutant decoy) at concentrations ranging from 0 nM to 600 nM. Using MTS assays, cell viabilities were assessed 72 hours later. Three independent experiments were performed, using 24-well plates and 4 wells/concentration.
(§2) To determine the concentration of CS3D required to inhibit cell viability, increasing concentrations of CS3D was transfected, and after 72 hours, MTS assays were used to assess cell viability. Data were normalized to cells treated with lipofectamine alone.
Fluorescently-labeled CS3M and CS3D (with iFluor) were also produced using enzymatic ligation as described above and used to assess uptake efficiency. Transfections of the cyclic oligonucleotides were performed using Lipofectamine 2000 (Life Technologies) in opti-MEM media (Life Technologies) as follows: Cells were plated at […] confluency, and exposed to transfection media containing the respective circularized oligonucleotides for 24 hours at 37° C. […]
Dose-response experiments assessing the relative number of metabolically active viable cells were performed by transfecting cells with increasing concentrations of CS3D or CS3M, followed by performance of MTS assays. […] The plates were then read at 490 nm in a Synergy microplate reader (BioTek, Winooski, Vermont) using Gen5 2.05 software. […]

[2] = target: pSTAT3 and total STAT3 in H1975 cells (Homo sapiens, UniProt P40763)
Sequence of pSTAT3 and total STAT3 in H1975 cells (P40763 2-770 limits assumed): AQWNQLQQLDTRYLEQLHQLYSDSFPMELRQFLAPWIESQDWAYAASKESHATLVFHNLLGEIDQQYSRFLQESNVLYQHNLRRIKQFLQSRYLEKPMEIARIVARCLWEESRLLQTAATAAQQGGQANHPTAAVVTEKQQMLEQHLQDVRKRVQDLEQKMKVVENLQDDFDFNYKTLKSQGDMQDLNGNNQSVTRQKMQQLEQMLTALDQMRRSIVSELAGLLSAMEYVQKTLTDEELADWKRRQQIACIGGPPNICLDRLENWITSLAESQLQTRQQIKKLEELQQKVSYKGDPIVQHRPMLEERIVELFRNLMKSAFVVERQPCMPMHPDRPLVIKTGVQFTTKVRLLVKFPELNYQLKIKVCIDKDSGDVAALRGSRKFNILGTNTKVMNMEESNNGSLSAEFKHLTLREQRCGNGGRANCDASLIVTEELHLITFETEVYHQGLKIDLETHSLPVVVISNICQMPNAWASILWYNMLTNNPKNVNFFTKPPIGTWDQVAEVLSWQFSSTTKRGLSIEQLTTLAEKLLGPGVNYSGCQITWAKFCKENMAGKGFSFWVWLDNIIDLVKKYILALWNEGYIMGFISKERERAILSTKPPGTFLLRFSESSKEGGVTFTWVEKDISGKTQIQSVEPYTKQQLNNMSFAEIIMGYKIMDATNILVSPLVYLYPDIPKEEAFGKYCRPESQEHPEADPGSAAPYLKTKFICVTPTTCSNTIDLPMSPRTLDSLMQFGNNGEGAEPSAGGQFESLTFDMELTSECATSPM

NSCLC cell lines = conditions: each NSCLC cell line, regardless of EGFR or KRAS mutation status; one 4-hr transfection
Experimental: as §1, §2
Dose-response experiments assessing the relative number of metabolically active viable cells were performed by transfecting cells with increasing concentrations of CS3D or CS3M, followed by performance of MTS assays. After 72 hours, 5 mg/ml of MTS reagent was added in the plates and incubated 37° C. for 20 minutes. The plates were then read at 490 nm in a Synergy microplate reader (BioTek, Winooski, Vermont) using Gen5 2.05 software. Data obtained following treatment with C3SD or CS3M were normalized to treatment with lipofectamine alone. […] To assess induction of apoptosis in response to CS3D, H1975 and 201T cells were transfected with 100 nM of CS3M or CS3D. […]

NNK-induced lung tumors = assay: NNK lung cancer chemoprevention pilot experiment; format: in vivo; conditions: 5 mg/kg IV 5 days a wk for 18 wks
Experimental: In a pilot experiment, 6 FVB/N mice were given 24 mg NNK (3 mg by ip injection, twice a wk×4 wks), followed by 6 wks rest, then IV treatment of 3 mice with either 5 mg/kg CS3D or CS3M 5 days a wk for 18 wks. […] With CS3M, lungs were filled with multiple invasive adenocarcinomas, while in mice receiving CS3D, tumor burden was reduced over 80%. H&E (hematoxylin and eosin) sections were taken of murine lungs exposed to NNK followed by treatment with CS3M or CS3D for 18 wks. Invasive carcinomas were prominent with CS3M and lacking with CS3D.

c-Myc mRNA in 201T cells = assay: RT-qPCR of c-Myc mRNA after EGF, 201T; format: cell-based, human; conditions: single transfection, EGF 10 ng/ml 1.5 hr
[3] = H1975, IL-6 50 ng/mL 1 hr, compared to CS3M or lipofectamine alone

## CS3D (DNA GATTTACGGGAAATGCSCATTTCCC; cyclic decoy with two hexaethylene glycol linkers, further chemistry not given here)
[1]; H1975 xenograft tumors, range among individual tumors
  c-Myc protein densitometry normalized for GAPDH: 0.11-0.16 units
[1]; H1975 xenografts, CS3D vs CS3M
  mean decrease of c-Myc protein: 65%
A549 cells
  IC50: 300 nM
[2]; [3]
  reduction in nuclear pSTAT3: 35%
  reduction in nuclear total STAT3: 35%
[2]; H1975, IL-6 stimulated
  effect on cytoplasmic pool of total STAT3: little effect
NSCLC cell lines
  IC50: ~300 nM
NNK-induced lung tumors
  toxic effects: no discernable toxic effects
NNK-induced lung tumors; 24 mg NNK, 6 wks rest, vs CS3M
  reduction of tumor burden: over 80%
c-Myc mRNA in 201T cells
  inhibition in mRNA level of c-Myc: 50%
